This passage reports IC50 and EC50 results from patent US20250066338A1, “CERTAIN 3-AZABICYCLO[3.1.0]HEXANES AS GLP-1 RECEPTOR MODULATORS” (AstraZeneca AB, priority 2021, published 2025).

pEC50, pIC50: −log10 of the molar value.

For experiment [1], the target named is human phosphodiesterase-3A (Homo sapiens (Human), UniProt Q14432). The experiment in a line: PDE3 Assay. To be noted: human recombinant enzyme expressed in Sf9 cells; formation of 5'AMP from cAMP. The format is biochemical. On the procedure:
Evaluation of the effects of compounds on the activity of the human phosphodiesterase-3A is quantified by measuring the formation of 5′AMP from cAMP using a human recombinant enzyme expressed in a clonal isolate of Spodoptera frugiperda cells (Sf9) cells.
The test compound, reference compound or water (control) are added to a buffer containing 40 mM tris(hydroxymethyl)aminomethane (Tris)/HCl (pH 7.4) and 8 mM MgCl2, 450 nMcAMP and 0.25 μCi [^3H]cAMP.
Thereafter, the reaction is initiated by addition of the enzyme (about 1 U) and the mixture is incubated for 20 min at 22° C.
For basal control measurements, the enzyme is omitted from the reaction mixture. Following incubation SPA beads are added. After 30 min at 22° C. under shaking, the amount of [^3H]^+ 5′AMP is quantified with a scintillation counter (Topcount, Packard).
The results are expressed as a percent inhibition of the control enzyme activity. The standard inhibitory reference compound is milrinone (CAS number 78415-72-2), which is tested in each experiment at several concentrations to obtain an inhibition curve from which its IC50 value is calculated.

In the next experiment the target is human GLP-1R receptor (Homo sapiens (Human), UniProt P43220, L260F). The experiment in a line: CHOK1 GLP-1R cAMP Assay. The format is cell-based. To be noted: CHO-K1 cell line stably expressing human GLP-1R; HTRF cAMP; agonist activity. On the procedure:
A cell line stably expressing the human GLP-1R receptor (NM 002062.5, including the naturally-occurring variant Leu260Phe) in a CHO-K1 (ATCC® CCL-61™) was used for assay.
GLP-1 receptor mediated agonist activity was determined in a cell based assay measuring cyclic adenosine monophosphate (cAMP) levels in cells using Homogeneous Time-Resolved Fluorescence (HTRF) cAMP detection kit (CisBio catalog #62AM4PEC, cAMP Gs Dynamic range kit). The cAMP detection method is based on a competitive immunoassay, in which cAMP produced by the cells and cAMP labeled with the dye d2 compete for binding to a Europium-Cryptate-labeled anti-cAMP antibody. The specific HTRF signal is inversely proportional to the concentration of cAMP.
Compounds were added to individual well in 384 well-assay plates (Greiner #784076) using an Echo (LabCyte) dispenser from 10 mM stocks. Varying concentration of compounds were added to wells, and DMSO was used to normalize each well to a volume of 100 nL. A dose response curve of GLP1(7-36)NH2 (Bachem H-6795) was included in each run. 5 μL of cAMP concentration response standards are applied in specified wells in the assay plates. Cryo-preserved cells are thawed and resuspended in assay buffer pre-heated to 37° C. (20 mM HEPES pH 7.4, lx Hank's Balanced Salt Solution (HBSS, Life Technologies #14065) supplemented with 0.1% (w/v) bovine serum albumin (Sigma, A-7030). Cells were centrifuged at 250*g for 5 min at rt, and resuspended in room tempered assay buffer to a final density of 0.16*10^6 cell/mL, to deliver 800 cells/well. 5 μL of assay buffer with 1 mM 3-isobutyl-1-methylxanthin (IBMX; Sigma cat I-7018) was dispensed per well in assay plates using a multidrop combi (Thermo Scientific) subsequently 5 μL of cell suspension was distributed to relevant wells in the assay using a multidrop dispenser. Assay plates were incubated 20 min at rt.
Detection reagents, Europium-Cryptate-labeled anti-cAMP antibody and cAMP labeled with the dye d2, are diluted in lysis buffer, provided by the manufacturer. 5 μL of each detection reagent is supplemented to each assay well using a multidrop dispenser. Assay plates are incubated in the dark for at least one h. The HTRF signal is measured using the HTRF module (excitation: 337 nm, emission A: 665 nm and emission B: 620 nm) in Pherastar FSX (BMG Labtech).
Raw data were converted to pM cAMP using the cAMP standard curve included in each run. Converted data were further analyzed in Genedata Screener (Genedata) and EC50 determinations were made from agonist dose-response curves analyzed with a curve fitting program using a 4-parameter logistic dose response equation (Equation y=A+((B−A)/1+((C/x)^D))) where A is no stimulation, B is full stimulation, C is the EC50 and D is the Hill slope). The percent effect was determined relative to a saturating concentration of a full GLP-1R agonist (GLP1(7-36)NH2 has 100% effect in this assay setup).
Background: Time-resolved FRET reads energy transfer from a long-lived donor to a nearby acceptor.

Experiment [2] addresses GLP-1R in EndoC-βH1 cells (Homo sapiens (Human), UniProt P43220). The experiment in a line: EndoC cAMP Accumulation Assay. The format is cell-based. Particulars: EndoC-βH1 human pancreatic beta cell line; HTRF cAMP accumulation. The source says: EndoC cAMP Accumulation Assay
A HTRF cAMP assay (cAMP Gs dynamic kit; CisoBio Cat #62AM4PEJ) was used to identify agonists of GLP-1R in a pancreatic insulinoma cell line (EndoC-βH1). […] EndoC-βH1 cells have detectable GLP-1R messenger ribonucleic acid (mRNA) as detected by quantitative polymerase chain reaction (qPCR). […] The EndoC-βH1 cell line is a valid model of human beta cells and applicable for screenings to identify novel drug target candidates (Mol. Metab., 2018, 8, 144-157). CisBio HTRF cAMP kits are based on a competitive immunoassay using cryptate-labelled anti-cAMP antibody and d2-labeled cAMP. The detection kit is intended for the direct quantitative determination of cAMP. The specific signal (i.e. energy transfer) is inversely proportional to the concentration of cAMP in the standard or sample. Test compounds (10 mM in DMSO) were diluted into assay buffer (HBSS (Sigma #H8264) supplemented with 25 mM HEPES (Gibco #15630, pH 7.4), 0.1% BSA (Sigma #A3059) and 0.5 mM IBMX (Sigma #17018) included fresh on the day of the assay) into 96 well U-bottom plates (Greiner #650201). Diluted compounds were transferred to ECHO source polypropylene plates (Labcyte #P-05525) and dose response curves were dispensed acoustically using ECHO 550 into black shallow-well u-bottom 384-well HTRF Assay Plates (Corning 4514).
Cryovials of EndoC-H1 (supplied at 1×10e^7 cells/vial) were used directly for screening. The cryovials and were removed from N2 (1) and thawed rapidly in a 37° C. water bath. The cells were resuspended in assay buffer and centrifuged at 300 g for 5 min. Cells were resuspended in assay buffer at the appropriate concentration, typically at 12e5 cells per mL (3000 cells per well, dependent on cell batch) and 2.5 μL diluted cells were added to all wells of destination plate by Multidrop combi reagent dispenser (Thermofisher). The plates were incubated at rt for 30 min. The assay was stopped by adding 2.5 μL anti-cAMP cryptate solution to all wells and 2.5 μL cAMP-d2 solution (both diluted 1:20 in lysis buffer) to columns 1-22 by Combi drop. A volume of 2.5 μL cAMP-d2 solution was added to wells E23 to P24 and 2.5 μL lysis buffer added to wells A23 to D24 by multichannel pipette. The plates were incubated at rt for 1 h and read on an Envision plate reader using excitation wavelength of 320 nm and emission of […] and 660 nm.
Raw data from Envision is converted to % DeltaF according to the manufacturer's instructions. Dose response curves are analysed via 4-Parameter Logistical Analysis and assay plate Z′ values obtained. Samples are graphed as percentage (%) activation plots compared to GIP (1-42, Bachem H-5645) with assay window defined by negative control as basal cell cAMP levels and positive control are defined by maximum GIP (82.5 nM) signal. GLP1 (7-36 amide, Bachem H-6795) dose response curve was included on all plates.

Chain of human GLP-1R receptor (P43220 24-463 L260F): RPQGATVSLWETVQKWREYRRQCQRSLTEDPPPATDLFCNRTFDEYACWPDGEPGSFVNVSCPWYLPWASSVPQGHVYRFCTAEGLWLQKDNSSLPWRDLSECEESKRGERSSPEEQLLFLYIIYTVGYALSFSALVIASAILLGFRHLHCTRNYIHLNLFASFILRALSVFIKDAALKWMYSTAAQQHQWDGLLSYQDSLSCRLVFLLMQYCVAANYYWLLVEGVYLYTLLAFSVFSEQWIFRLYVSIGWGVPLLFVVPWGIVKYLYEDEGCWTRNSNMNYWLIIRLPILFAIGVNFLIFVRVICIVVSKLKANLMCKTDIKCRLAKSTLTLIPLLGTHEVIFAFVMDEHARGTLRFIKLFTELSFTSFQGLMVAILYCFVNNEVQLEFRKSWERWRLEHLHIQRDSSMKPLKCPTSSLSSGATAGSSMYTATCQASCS
Chain of human phosphodiesterase-3A (Q14432 whole entry): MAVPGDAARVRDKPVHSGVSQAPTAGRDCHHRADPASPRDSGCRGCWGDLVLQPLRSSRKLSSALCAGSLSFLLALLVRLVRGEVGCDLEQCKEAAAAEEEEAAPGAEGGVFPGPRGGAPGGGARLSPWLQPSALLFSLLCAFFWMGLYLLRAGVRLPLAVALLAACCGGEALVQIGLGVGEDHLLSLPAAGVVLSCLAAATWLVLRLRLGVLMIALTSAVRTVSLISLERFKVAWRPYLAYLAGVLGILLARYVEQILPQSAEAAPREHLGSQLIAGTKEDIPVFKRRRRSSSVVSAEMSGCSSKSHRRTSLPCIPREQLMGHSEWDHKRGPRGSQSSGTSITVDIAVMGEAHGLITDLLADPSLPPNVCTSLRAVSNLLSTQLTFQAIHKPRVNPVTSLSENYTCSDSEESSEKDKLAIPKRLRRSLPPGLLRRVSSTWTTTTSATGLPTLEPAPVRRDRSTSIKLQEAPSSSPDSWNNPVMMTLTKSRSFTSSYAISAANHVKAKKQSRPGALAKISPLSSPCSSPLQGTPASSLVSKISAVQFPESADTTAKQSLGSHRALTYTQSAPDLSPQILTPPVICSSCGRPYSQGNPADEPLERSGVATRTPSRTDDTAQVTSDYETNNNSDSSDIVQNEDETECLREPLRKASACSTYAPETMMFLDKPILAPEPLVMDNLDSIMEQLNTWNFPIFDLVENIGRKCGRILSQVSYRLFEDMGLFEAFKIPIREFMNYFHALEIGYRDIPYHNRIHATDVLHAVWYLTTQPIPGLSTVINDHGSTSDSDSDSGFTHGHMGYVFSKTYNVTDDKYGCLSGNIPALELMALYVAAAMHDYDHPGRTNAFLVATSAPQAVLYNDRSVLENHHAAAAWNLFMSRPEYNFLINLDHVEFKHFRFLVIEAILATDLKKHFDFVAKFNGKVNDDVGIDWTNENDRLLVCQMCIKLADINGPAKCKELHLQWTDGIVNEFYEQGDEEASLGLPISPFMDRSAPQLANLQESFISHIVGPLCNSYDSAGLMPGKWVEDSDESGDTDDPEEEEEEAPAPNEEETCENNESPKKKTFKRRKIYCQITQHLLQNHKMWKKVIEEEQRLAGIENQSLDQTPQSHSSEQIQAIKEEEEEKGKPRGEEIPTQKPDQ
Chain of GLP-1R in EndoC-βH1 cells (P43220 24-463): as the sequence (P43220 24-463 L260F) above, with F237L counted along it

As a reminder, the pIC50 is the IC50 on a negative log10 scale, so that one unit is a factor of ten. A word on the pEC50: it is −log10 of the EC50, conventionally taken in molar units. Low readings indicate a large EC50, high ones a small EC50. Consider `O=C(O)c1ccc2nc(CN3C[C@@H]4[C@H](C3)[C@H]4c3cccc(OCc4ccc(Cl)cc4F)n3)n(C[C@@H]3CCO3)c2c1` [Example 13, 2-(((1R,5S,6S)-6-(6-((4-Chloro-2-fluorobenzyl)oxy)pyridin-2-yl)-3-azabicyclo[3.1.0]hexan-3-yl)methyl)-1-(((S)-oxetan-2-yl)methyl)-1H-benzo[d]imidazole-6-carboxylic acid], for which the pIC50 in experiment [1] is below 4.00. Also, the pEC50 on human GLP-1R receptor was 7.00; in experiment [2], 7.64.
As for `CCn1cncc1Cn1c(CN2C[C@@H]3[C@H](C2)[C@H]3c2cccc(OCc3ccc(Cl)cc3F)n2)nc2c(OC)cc(C(=O)O)cc21` [Example 14, 2-(((1R,5S,6r)-6-(6-((4-Chloro-2-fluorobenzyl)oxy)pyridin-2-yl)-3-azabicyclo[3.1.0]hexan-3-yl)methyl)-1-((1-ethyl-1H-imidazol-5-yl)methyl)-4-methoxy-1H-benzo[d]imidazole-6-carboxylic acid], the pEC50 at human GLP-1R receptor is 7.52; in experiment [2] it was 8.13.
Turning to `O=C(O)c1cc(F)c2nc(CN3C[C@@H]4[C@H](C3)[C@H]4c3cccc(OCc4ccc(Cl)cc4F)n3)n(C[C@@H]3CCO3)c2c1` [Example 15, 2-(((1R,5S,6S)-6-(6-((4-Chloro-2-fluorobenzyl)oxy)pyridin-2-yl)-3-azabicyclo[3.1.0]hexan-3-yl)methyl)-4-fluoro-1-(((S)-oxetan-2-yl)methyl)-1H-benzo[d]imidazole-6-carboxylic acid], the pEC50 at human GLP-1R receptor was 7.24; in experiment [2] it was 7.55.
For the compound `O=C(O)c1ccc2nc(CN3C[C@@H]4[C@H](C3)[C@H]4c3nc(OCc4ccc(Cl)cc4F)ccc3F)n(C[C@@H]3CCO3)c2c1` [Example 16, 2-(((1R,5S,6S)-6-(6-((4-Chloro-2-fluorobenzyl)oxy)-3-fluoropyridin-2-yl)-3-azabicyclo[3.1.0]hexan-3-yl)methyl)-1-(((S)-oxetan-2-yl)methyl)-1H-benzo[d]imidazole-6-carboxylic acid], the values for the pEC50 (at human GLP-1R receptor; in experiment [2]) were 7.33 and 7.62, respectively.
Take `COc1cc(C(=O)O)cc2c1nc(CN1C[C@@H]3[C@H](C1)[C@H]3c1nc(OCc3ccc(Cl)cc3F)ccc1Cl)n2C[C@@H]1CCO1` [Example 18, 2-(((1R,5S,6S)-6-(3-Chloro-6-((4-chloro-2-fluorobenzyl)oxy)pyridin-2-yl)-3-azabicyclo[3.1.0]hexan-3-yl)methyl)-4-methoxy-1-(((S)-oxetan-2-yl)methyl)-1H-benzo[d]imidazole-6-carboxylic acid]: the pEC50 at human GLP-1R receptor was 7.18; in experiment [2], 7.38.
In the case of `COc1cc(C(=O)O)cc2c1nc(CN1C[C@@H]3[C@H](C1)[C@H]3c1cccc(OCc3ccc(F)cc3F)n1)n2C[C@@H]1CCO1` [Example 20, 2-(((1R,5S,6S)-6-(6-((2,4-Difluorobenzyl)oxy)pyridin-2-yl)-3-azabicyclo[3.1.0]hexan-3-yl)methyl)-4-methoxy-1-(((S)-oxetan-2-yl)methyl)-1H-benzo[d]imidazole-6-carboxylic acid], the pEC50 on human GLP-1R receptor was 7.21; in experiment [2], 7.37.
For `COc1cc(C(=O)O)cc2c1nc(CN1C[C@@H]3[C@H](C1)[C@H]3c1cccc(OCc3cc(C)ccc3F)n1)n2C[C@@H]1CCO1` [Example 21, 2-(((1R,5S,6S)-6-(6-((2-Fluoro-5-methylbenzyl)oxy)pyridin-2-yl)-3-azabicyclo[3.1.0]hexan-3-yl)methyl)-4-methoxy-1-(((S)-oxetan-2-yl)methyl)-1H-benzo[d]imidazole-6-carboxylic acid], the pEC50 is 7.36 at human GLP-1R receptor and 5.96 in experiment [2].
With `COc1cc(C(=O)O)cc2c1nc(CN1C[C@@H]3[C@H](C1)[C@H]3c1cccc(OCc3ccccc3OC(F)F)n1)n2C[C@@H]1CCO1` [Example 22, 2-(((1R,5S,6S)-6-(6-((2-(Difluoromethoxy)benzyl)oxy)pyridin-2-yl)-3-azabicyclo[3.1.0]hexan-3-yl)methyl)-4-methoxy-1-(((S)-oxetan-2-yl)methyl)-1H-benzo[d]imidazole-6-carboxylic acid], the pEC50 at human GLP-1R receptor is 7.31; in experiment [2], 7.47.
Regarding `COc1cc(C(=O)O)cc2c1nc(CN1C[C@@H]3[C@H](C1)[C@H]3c1cccc(OCc3ccc(C)cc3)n1)n2C[C@@H]1CCO1` [Example 23, 4-Methoxy-2-(((1R,5S,6S)-6-(6-((4-methylbenzyl)oxy)pyridin-2-yl)-3-azabicyclo[3.1.0]hexan-3-yl)methyl)-1-(((S)-oxetan-2-yl)methyl)-1H-benzo[d]imidazole-6-carboxylic acid], the results for the pEC50 (on human GLP-1R receptor; in experiment [2]) were 7.13 and 7.51, respectively.
As to `N#Cc1ccc(COc2cccc(C3=CCN(Cc4nc5ccc(C(=O)O)cc5n4C[C@@H]4CCO4)CC3)n2)c(F)c1` [Ref Comp A, reference compound], in experiment [1], the negative logarithm of the IC50 (pIC50) was 5.40.
Regarding `N#Cc1ccc(COc2cccc(C3CCN(Cc4nc5ccc(C(=O)O)cc5n4C[C@H]4CCO4)CC3)n2)c(F)c1` [Ref Comp B, reference compound], the pIC50 in experiment [1] was 4.96.
As to `Cc1cc(Cc2nc3ccc(C(=O)O)cc3n2C[C@@H]2CCO2)c(F)cc1-c1cccc(OCc2ccc(C#N)cc2F)n1` [Ref Comp D, reference compound], the pIC50 in experiment [1] was 5.30.
